6 compounds from US20180028553A1, “USE OF STING AGONIST AS CANCER TREATMENT” (The University of Chicago, priority 2013, published 2018) can be followed below.

In one series the target is T1, hSTING^REF (Homo sapiens, UniProt Q86WV6).
T1 construct: expressing each of the full length hSTING variants; expressed in transfected cells; host or cells: HEK 293T (deficient in endogenous STING), MSCV2.2 retroviral transduction
In words: IFN-β luciferase reporter assay in HEK 293T cells expressing hSTING REF. It counts as cell-based. The conditions noted are these: 10 μM CDN, 6 hours. As to the method: (§1) Luciferase Assay. […] After 20 min, stimulation mixtures were removed and normal media was added. After a total of 6 hours, cell lysates were prepared and reporter gene activity measured using the Dual Luciferase Assay System (Promega) on a Spectramax M3 luminometer.
For orientation: A reporter such as luciferase makes a cellular process visible.

In series [1] the test system is STING pathway (TBK1, IRF3 phosphorylation). In words: Western blot of pTBK1 and pIRF3 in macrophages and BM-DCs after STING agonist. It counts as cell-based, mouse. The note with it: WT macrophages; DMXAA 50 μg/ml or ML RR-S2 CDA 50 μM. The method, then:
DMXAA for the same time-points. Proteins were extracted with Triton-X buffer (150 mM sodium chloride, 50 mM Tris, 1% Triton-X, pH 8.0) with proteinase inhibitors (Thermo scientific) and phosphatase inhibitors (Sigma). 30 μg of protein was electrophoresed in 10% SDS-PAGE gels and transferred onto Immobilon-FL membranes (Millipore). Blots were incubated with antibodies specific for phosphorylated TBK1 (Ser172), phosphorylated IRF3 (Ser396), total TBK1, STING and GAPDH (Cell Signaling) or total IRF3 (Invitrogen). Proteins from HEK 293T lines stably expressing STING were extracted with M-PER (Thermo Scientific). 6 μg of protein was loaded onto a 4-12% MES NuPAGE gel (Life Technologies), transferred to nitrocellulose, and probed with anti-HA antibody (Santa Cruz). Anti-rabbit IRDye 680RD label secondary antibody was used for visualization of bands with the Odyssey Imaging system (LI-COR).
On the technique in general: A western blot detects proteins with antibodies after separation by electrophoresis.

For the next series, the system named is B16.F10 tumors. The series can be described thus: Intratumoral treatment of established B16.F10 tumors. The note with it: for injection site reactogenicity: three IT injections; for effect on tumor growth: WT C57BL/6 mice, three IT injections over a one-week period. It counts as in vivo, mouse. The method, then: (§2) In vivo tumor experiments. 10^6 of B16-SIY tumor cells, 5×10^4 B16.F10 tumor cells, 10^5 4T1 and CT26, or 10^6 other tumor cells were injected s.c. in 100 μl DPBS or HBSS on the right flank of mice. Following tumor implantation, mice were randomized into treatment groups. […] Measurements of tumors were performed twice per week using calipers, and the tumor volume was calculated with the formula: V=(length×width^2)/2. In some experiments, tumor-free survivors were rechallenged with tumor cells on the opposite flank several weeks after the injection of the primary tumor. Naïve mice were used as controls. For the contralateral experiments, mice were implanted on both flanks and only one tumor was treated. For the B16 melanoma lung metastasis experiments, mice were implanted on the flank with 5×10^4 cells B16.F10 on day 0, and then injected intravenously with 1×10^5 cells on day 7. Lungs were harvested on day 28. Administration of compounds, measurements of tumors and counting of lung tumors were performed in a blinded fashion.

The subject of another series is 4T-1 tumors. In words: Intratumoral treatment of 4T-1 tumors. Format: in vivo, mouse. As to the method: as §2
A further series deals with CT26 colon carcinoma. The series can be described thus: Intratumoral treatment of CT26 colon carcinoma. It counts as in vivo, mouse. The method, then: as §2
In another series the test system is B16.F10 lung metastases. The series can be described thus: B16 melanoma lung metastasis experiment. It counts as in vivo, mouse. The conditions noted are these: flank tumor treated IT, ML RR-S2 CDA 50 μg versus DMXAA 150 μg. The method, then: as §2
In series [2] the test system is CT26 rejection antigen AH1. In words: IFN-γ ELISPOT against AH1 in CT26-bearing mice. Format: in vivo, mouse. The conditions noted are these: 21 days post-implantation. The method, then: IFN-γ ELISPOT and SIY-pentamer staining. […] […] Spots were developed using the BD mouse IFN-γ kit according to the manufacturer's instructions and the number of spots was measured using an Immunospot Series 3 Analyzer and analyzed using ImmunoSpot software (Cellular Technology Ltd). For SIY-pentamer staining, splenocytes were preincubated for 15 min with anti-CD16/32 monoclonal antibody (93) to block potential nonspecific binding, and labeled with PE-MHC class I pentamer (Proimmune) consisting of murine H-2K^b complexed to […] (SIY) peptide, anti-TCRβ-AF700 (H57-597), anti-CD8-Pacific Blue (53-6.7), anti-CD4-Pacific Orange (RM4-5) (all antibodies from BioLegend) and the Fixable Viability Dye eFluor 450 (eBioscience). Stained cells were analyzed using LSR II cytometer with FACSDiva software (BD). Data analysis was conducted with FlowJo software (Tree Star).

For series [3], the system named is five hSTING alleles (WT, REF, HAQ, AQ and Q). In words: IFN-β luciferase reporter assay in HEK 293T cells expressing hSTING variants. It counts as cell-based, human. The conditions noted are these: 10 μM CDN, 6 hours. As to the method: as §1
The subject of series [4] is murine bone marrow macrophages (BMMs). In words: qRT-PCR of IFN-β and cytokines in bone marrow macrophages stimulated with CDNs. Format: cell-based, mouse. The note with it: WT C57BL/6 BMMs, 5 μM, 6 hours; compared to ML-cGAMP, poly I:C and LPS on a molar equivalent basis. As to the method:
WT BMM were stimulated with CDN at 5 μM in HBSS with the addition of Effectene (Qiagen) transfection reagent (per kit protocol). […] After a 6 hr incubation, cells were harvested and assessed by real-time qRT-PCR for gene expression of IFN-β1, MCP-1, TNF-α) and IL-6 using the PrimePCR RNA purification and cDNA analysis system, and run on the CFX96 gene cycler (BioRad).
(Real-time PCR tracks product formation cycle by cycle.)

The mark [5] stands for this setting: BALB/c mice, three IT doses of 50 μg.
The mark [6] stands for this setting: bilateral tumors, IT injection into one tumor.
The mark [7] stands for this setting: mice cured of their primary tumor.

T1 sequence (Q86WV6 whole entry): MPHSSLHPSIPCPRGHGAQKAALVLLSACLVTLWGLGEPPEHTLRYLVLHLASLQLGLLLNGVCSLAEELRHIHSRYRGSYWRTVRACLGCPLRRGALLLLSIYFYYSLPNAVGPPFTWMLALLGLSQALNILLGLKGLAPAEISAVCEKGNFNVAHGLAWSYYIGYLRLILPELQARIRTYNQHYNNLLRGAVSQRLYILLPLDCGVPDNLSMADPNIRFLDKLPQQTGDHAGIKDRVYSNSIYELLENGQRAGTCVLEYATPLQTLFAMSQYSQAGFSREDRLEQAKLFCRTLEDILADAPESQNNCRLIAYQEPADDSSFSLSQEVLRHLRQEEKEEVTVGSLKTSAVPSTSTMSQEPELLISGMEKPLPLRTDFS

Regarding `Nc1ncnc2c1ncn2[C@@H]1O[C@@H]2COP(=O)(O)O[C@H]3[C@@H](O)[C@H](n4cnc5c(N)ncnc54)O[C@@H]3COP(=O)(O)O[C@H]2[C@H]1O` [CDA], the IFN-β reporter responsiveness entry on hSTING^REF is on record as “responded poorly”.

For `Nc1nc2c(ncn2[C@@H]2O[C@@H]3COP(=O)(O)O[C@H]4[C@@H](O)[C@H](n5cnc6c(=O)[nH]c(N)nc65)O[C@@H]4COP(=O)(O)O[C@H]3[C@H]2O)c(=O)[nH]1` [CDG], the IFN-β reporter responsiveness entry at hSTING^REF was “responded poorly”.

`Nc1ncnc2c1ncn2[C@@H]1O[C@@H]2COP(O)(=S)O[C@@H]3C(O)[C@@H](COP(O)(=S)O[C@H]2[C@H]1O)O[C@H]3n1cnc2c(N)ncnc21` (stereo partly shown) [ML RR-S2 CDA, dithio-(Rp, Rp)-[cyclic[A(2′,5′)pA(3′,5′)p]]]: the “phosphorylation of TBK1 and IRF3” value in series [1] is “induce phosphorylation of TBK1 and IRF3”. Besides, the “potency compared to CpG-based TLR9 agonists and multiple other TLR agonists” value in the series on B16.F10 tumors (given IT at the same doses (50 μg)) is listed as “significantly increased potency”. The injection site reactogenicity entry with B16.F10 tumors was “no injection site reactogenicity”. The tumor regression result is “significant and durable tumor regression” with 4T-1 tumors (setting [5]); “significant and durable tumor regression” with CT26 colon carcinoma (setting [5]). For the same compound, the “regression of the contralateral untreated tumor” value in the series on 4T-1 tumors (setting [6]) and with CT26 colon carcinoma (setting [6]) was “significant regression of the contralateral untreated tumor” in each case. Besides, the resistance to re-challenge entry in the series with 4T-1 tumors (setting [7]) and with CT26 colon carcinoma (setting [7]) was “completely resistant to re-challenge” in each case. The “inhibition of growth of distant lung metastases” value with B16.F10 lung metastases is recorded as “more significant inhibition of growth of distant lung metastases than DMXAA”. Further, in series [2], the “immune responses against AH1 (IFN-γ ELISPOT)” value is “improved immune responses”. Besides, the IFN-β reporter activation entry in series [3] is listed as “potently activated all five hSTING alleles”. Further, the “expression of pro-inflammatory cytokines (IFN-β)” value in series [4] is listed as “highest expression of pro-inflammatory cytokines”.

Take `Nc1nc2c(ncn2[C@@H]2O[C@@H]3CO[P@@](=O)(S)O[C@@H]4[C@H](O)[C@@H](CO[P@@](=O)(S)O[C@H]3[C@H]2O)O[C@H]4n2cnc3c(=O)[nH]c(N)nc32)c(=O)[nH]1` [ML RR-S2 CDG]: the “efficacy at lower dose levels” value in the series on B16.F10 tumors (lower dose levels) is listed as “not efficacious”. Further, in the series on B16.F10 tumors (mouse, in vivo), the therapeutic index entry is “narrow therapeutic index”. The injection site reactogenicity result in the series with B16.F10 tumors is reported as “reactogenic”. In addition, in [3], the IFN-β reporter activation result is recorded as “potently activated all five hSTING alleles”. The “expression of pro-inflammatory cytokines (IFN-β)” value in series [4] is given as “highest expression of pro-inflammatory cytokines”.

Consider `Nc1ncnc2c1ncn2C1OC2COP(=O)(O)OC3C(O)C(COP(=O)(O)OC2C1O)OC3n1cnc2c(N)ncnc21` (stereo not shown) [ML-CDA], for which, in the series with B16.F10 tumors, the “effect on tumor growth” value was “modest effects on tumor growth”.

Consider `Nc1nc2c(ncn2C2OC3COP(=O)(O)OC4C(O)C(COP(=O)(O)OC3C2O)OC4n2cnc3c(=O)[nH]c(N)nc32)c(=O)[nH]1` (stereo not shown) [ML-CDG], for which, in the series on B16.F10 tumors, the “effect on tumor growth” value was “modest effects on tumor growth”.
